Laboratory results: patent publication US8703771B2, “Preparation method of dihydroindene amide compounds, their pharmaceutical compositions containing compounds thereof and use as protein kinases inhibitor” (Harbin Gloria Pharmaceuticals Co., Ltd., priority 2008, dated 2014)
Where a name gives a salt, the structure may show the parent alone. Read-outs that look alike come from different tables or passages of the source.

Experiments:
[1] = target: PDGFR (Homo sapiens); test: Mobility Shift Assay of PDGFR kinase enzyme activity; assay type: biochemical; conditions: ATP at Km 38 μM, 5 hours at 28° C.
Procedure: (§1) The activity of the compounds of this invention on Abl, c-Kit and PDGFR kinases was tested by Mobility Shift Assay (MSA).
(§2) • 1. Preparation of kinase buffer and stop buffer;
(§3) The compound was dissolved in DMSO and then serial dilutions were prepared; • 3. Preparation of kinase solution: Kinase solution was obtained by dissolving kinases in the kinase buffer mentioned above. With regard to c-Kit kinase, the pre-activation treatments should be carried out as follows. 700 nM c-Kit, 2 mM ATP, 4 mM DTT and 10 mM MgCl2 were dissolved in kinase buffer. After being incubated at 28° C. for 15 minutes, the solution was added to the kinase buffer; • 4. Preparation of polypeptide solution: Polypeptide FAM and ATP were dissolved in kinase buffer; • 5. The kinase solution was transferred to a culture plate and incubated for 10 minutes at room temperature. […] The polypeptide solution was transferred to the culture plate. […] The final concentrations of MgCl2 in all circumstances were all 10 mM; • 7. The mixture in each well of the plate was incubated at 28° C., for 1 hour for Abl, 40 minutes for c-Kit and 5 hours for PDGFR. The stop buffer was then added to terminate the reaction; • 8. Data were collected in Caliper and then input into the software XLfit to calculate IC50 values.

[2] = target: T1, c-Kit (Homo sapiens (Human), UniProt P10721); test: Mobility Shift Assay of c-Kit kinase enzyme activity; assay type: biochemical; conditions: ATP at Km 87 μM, 40 minutes at 28° C., pre-activated c-Kit
Procedure: as §1, §2, §3

[3] = system: chronic myeloid leukaemia cell K562; test: cells; conditions: Homo sapiens, K562, 72 h, read-out: IC50 (nM) inhibition of K562 cell growth
[4] = target: c-Kit (D816H) (Homo sapiens (Human), UniProt P10721, D816H); test: 33P-ATP kinase assay, c-Kit (D816H); assay type: biochemical; conditions: 33P-ATP assay; ATP concentration 30 μM
Procedure: (§4) Inhibitory activity of the compounds of this invention on Abl, c-Kit and PDGFR mutant kinases was tested by the phosphor isotope-labelled ATP (^33P-ATP) assay. • 1. Substrate solution was prepared using newly-prepared reaction buffer. The buffer includes: 20 mM HEPES, pH 7.5, 10 mM MgCl2, 1 mM EGTA, 0.02% Brij 35, 0.02 mg/ml BSA, 0.1 mM Na3VO4, 2 mM DTT, 1% DMSO. […] Required co-enzymes were added to the above substrate solution; • 3. Kinases were added and mixed gently; • 4. The tested compound was dissolved in DMSO, and then added to the above kinase solution by using Acoustic technique (Echo550, nanoliter range) and incubated for 20 minutes; • 5. ^33P-ATP was added to the above reaction mixture to initiate the reaction; • 6. The mixture was incubated for 2 hours at room temperature; • 7. The activity of kinases was tested by filtration-combination; • 8. The data were processed in Excel and the control data were subtracted. A curve was drawn by the GraphPad Prism software to get the IC50 value.

[5] = target: c-Kit (D816V) (Homo sapiens (Human), UniProt P10721, D816V); test: 33P-ATP kinase assay, c-Kit (D816V); assay type: biochemical; conditions: 33P-ATP assay; ATP concentration 30 μM
Procedure: as §4

[6] = target: c-Kit (V654A) (Homo sapiens (Human), UniProt P10721, V654A); test: 33P-ATP kinase assay, c-Kit (V654A); assay type: biochemical; conditions: 33P-ATP assay; ATP concentration 30 μM; 2 mM MnCl2 in buffer
Procedure: as §4

[7] = target: c-Kit (V560G) (Homo sapiens (Human), UniProt P10721, V560G); test: 33P-ATP kinase assay, c-Kit (V560G); assay type: biochemical; conditions: 33P-ATP assay; ATP concentration 30 μM
Procedure: as §4

[8] = target: T1, c-Kit; test: 33P-ATP kinase assay, c-Kit; assay type: biochemical; conditions: 33P-ATP assay; ATP concentration 30 μM; 2 mM MnCl2 in buffer
Procedure: as §4

[9] = target: c-Kit (T670I) (Homo sapiens (Human), UniProt P10721, T670I); test: 33P-ATP kinase assay, c-Kit (T670I); assay type: biochemical; conditions: 33P-ATP assay; ATP concentration 30 μM
Procedure: as §4

[10] = system: chronic myeloid leukaemia cell K562; test: MTS growth inhibition assay, K562 cell strain; assay type: cell-based; conditions: Homo sapiens, MTS/PMS, 72 hours
Procedure: (§5) This invention also tested the inhibitory activity of the compounds of this invention on the growth of chronic myeloid leukaemia cell K562, KU812, and MEG-01, acute myeloid leukaemia cell Kasumi-1 and acute lymphatic leukemia cell Sup-B15.
(§6) 1. Preparation of Assay Solution
(§7) (1) Preparation of PMS solution: PMS was dissolved in DPBS to give a concentration of […]. The solution was then filtered into a sterile and lightproof container;
(§8) (2) Preparation of MTS solution: a) 21 ml DPBS was added to a lightproof container; b) 42 mg MTS powder was weighted and then added to DPBS; c) the above were mixed on a electromagnetic stirrer until the powder was dissolved; d) the pH value was measured. […] If the pH was higher than 6.5, it should be adjust to 6.5 with 1 N HCl; e) the solution was filtered into a sterile and lightproof container; (3) Preparation of MTS/PMS mixture: a) 2 ml of the MTS solution was transferred to a tube; b) 100 μL of the PMS solution was added to the tube; c) the tube was vortexed gently to mix the solution thoroughly. 2. […] 3. […] 4.

[11] = system: acute myeloid leukaemia cell Kasumi-1; test: MTS growth inhibition assay, Kasumi-1 cell strain; assay type: cell-based; conditions: Homo sapiens, MTS/PMS, 72 hours
Procedure: as §5, §6, §7, §8

[12] = system: chronic myeloid leukaemia cell MEG-01; test: MTS growth inhibition assay, MEG-01 cell strain; assay type: cell-based; conditions: MTS/PMS, 72 hours
Procedure: as §5, §6, §7, §8

[13] = system: chronic myeloid leukaemia cell KU812; test: MTS growth inhibition assay, KU812 cell strain; assay type: cell-based; conditions: MTS/PMS, 72 hours
Procedure: as §5, §6, §7, §8

[14] = system: acute lymphatic leukemia cell Sup-B15; test: MTS growth inhibition assay, Sup-B15 cell strain; assay type: cell-based; conditions: MTS/PMS, 72 hours
Procedure: as §5, §6, §7, §8

[15] = system: chronic myeloid leukaemia cell K562; conditions: read-out: IC50 (nM) inhibition of K562 cell growth; CellTiter-Glo; 72 hours

Sequence of PDGFR (Homo sapiens) (P09619 33-1106 limits assumed): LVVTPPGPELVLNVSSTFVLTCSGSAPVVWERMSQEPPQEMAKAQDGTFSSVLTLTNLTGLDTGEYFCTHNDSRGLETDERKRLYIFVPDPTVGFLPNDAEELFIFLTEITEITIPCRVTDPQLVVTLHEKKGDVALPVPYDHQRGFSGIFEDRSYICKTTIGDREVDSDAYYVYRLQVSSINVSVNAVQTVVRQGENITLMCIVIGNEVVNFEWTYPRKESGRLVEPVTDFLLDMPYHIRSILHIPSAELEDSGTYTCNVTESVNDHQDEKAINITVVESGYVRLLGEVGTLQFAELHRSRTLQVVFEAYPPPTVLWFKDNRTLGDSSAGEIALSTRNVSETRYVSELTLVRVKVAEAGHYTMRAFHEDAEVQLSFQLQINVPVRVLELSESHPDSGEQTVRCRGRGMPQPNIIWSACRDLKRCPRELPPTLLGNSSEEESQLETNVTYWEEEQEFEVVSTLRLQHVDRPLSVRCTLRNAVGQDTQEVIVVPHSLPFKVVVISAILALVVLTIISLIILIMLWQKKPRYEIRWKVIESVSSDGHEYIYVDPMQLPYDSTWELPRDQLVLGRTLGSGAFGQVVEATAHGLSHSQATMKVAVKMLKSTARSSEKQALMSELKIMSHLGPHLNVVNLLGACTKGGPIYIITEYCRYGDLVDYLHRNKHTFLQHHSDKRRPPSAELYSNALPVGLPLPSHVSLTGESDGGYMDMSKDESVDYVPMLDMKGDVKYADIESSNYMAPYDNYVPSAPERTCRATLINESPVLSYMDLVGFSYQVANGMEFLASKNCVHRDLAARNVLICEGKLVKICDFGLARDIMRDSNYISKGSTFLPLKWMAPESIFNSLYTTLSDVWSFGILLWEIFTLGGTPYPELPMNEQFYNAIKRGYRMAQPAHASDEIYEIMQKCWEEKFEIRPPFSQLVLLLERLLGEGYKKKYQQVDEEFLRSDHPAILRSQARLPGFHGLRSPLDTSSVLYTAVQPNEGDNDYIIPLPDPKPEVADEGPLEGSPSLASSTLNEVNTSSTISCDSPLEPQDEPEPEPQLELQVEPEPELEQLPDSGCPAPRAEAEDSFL
T1 sequence (P10721 26-976): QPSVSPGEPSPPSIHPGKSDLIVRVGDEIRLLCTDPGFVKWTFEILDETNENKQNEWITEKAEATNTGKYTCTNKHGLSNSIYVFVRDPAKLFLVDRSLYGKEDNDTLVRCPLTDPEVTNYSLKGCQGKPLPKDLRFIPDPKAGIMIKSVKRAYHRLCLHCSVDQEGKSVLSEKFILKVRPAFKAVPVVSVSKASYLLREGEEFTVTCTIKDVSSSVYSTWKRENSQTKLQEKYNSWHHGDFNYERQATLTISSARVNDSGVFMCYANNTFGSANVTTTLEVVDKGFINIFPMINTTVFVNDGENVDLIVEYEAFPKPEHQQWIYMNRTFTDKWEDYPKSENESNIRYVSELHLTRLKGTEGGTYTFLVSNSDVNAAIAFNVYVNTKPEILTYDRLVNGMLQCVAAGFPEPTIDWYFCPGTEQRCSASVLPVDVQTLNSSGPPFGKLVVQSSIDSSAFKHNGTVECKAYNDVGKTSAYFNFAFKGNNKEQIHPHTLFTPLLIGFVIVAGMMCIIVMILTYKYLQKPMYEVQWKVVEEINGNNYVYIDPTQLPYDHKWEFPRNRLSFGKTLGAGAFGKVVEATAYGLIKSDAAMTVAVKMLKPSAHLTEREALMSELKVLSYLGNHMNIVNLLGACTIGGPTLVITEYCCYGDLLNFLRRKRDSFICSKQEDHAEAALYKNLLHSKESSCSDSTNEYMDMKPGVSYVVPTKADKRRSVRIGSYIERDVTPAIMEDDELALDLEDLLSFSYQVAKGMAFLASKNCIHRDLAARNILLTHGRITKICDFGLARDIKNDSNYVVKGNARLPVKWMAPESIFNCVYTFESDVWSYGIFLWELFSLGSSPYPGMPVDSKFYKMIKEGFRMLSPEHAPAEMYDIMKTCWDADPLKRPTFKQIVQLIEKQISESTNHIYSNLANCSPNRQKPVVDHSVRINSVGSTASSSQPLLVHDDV
Sequence of c-Kit (D816H) (P10721 26-976 D816H): as the sequence (P10721 26-976) above, with D791H counted along it
Sequence of c-Kit (V560G) (P10721 26-976 V560G): as the sequence (P10721 26-976) above, with V535G counted along it
Sequence of c-Kit (D816V) (P10721 26-976 D816V): as the sequence (P10721 26-976) above, with D791V counted along it
Sequence of c-Kit (T670I) (P10721 26-976 T670I): as the sequence (P10721 26-976) above, with T645I counted along it
Sequence of c-Kit (V654A) (P10721 26-976 V654A): as the sequence (P10721 26-976) above, with V629A counted along it

IC50 [1] [nM] | IC50 [2] [nM] | SMILES | further results
17 | 22 | Cc1ccc(NC(=O)c2ccc3c(c2)CCC3N2CCN(C)CC2)cc1Nc1nccc(-c2cccnc2)n1 (stereo not shown) [EXAMPLE 1, 1-(4-methylpiperazin-1-yl)-N-(4-methyl-3-[(4-pyridin-3-ylpyrimidin-2-yl)amino]phenyl)-2,3-dihydro-1H-inden-5-carboxamide] | –
233 | 1190 | Cc1ccc(NC(=O)c2ccc3c(c2)CCC3N2CCN(C(=O)OC(C)(C)C)CC2)cc1Nc1nccc(-c2cccnc2)n1 (stereo not shown) [EXAMPLE 2, tert-butyl 4-{5-[({4-methyl-3-[(4-pyridin-3-ylpyrimidin-2-yl)amino]phenyl}amino)carbonyl)-2,3-dihydro-1-H-inden-1-yl}piperazin-1-carboxylate] | –
– | 16 | Cc1ccc(NC(=O)c2ccc3c(c2)CCC3N2CCNCC2)cc1Nc1nccc(-c2cccnc2)n1 (stereo not shown) [EXAMPLE 3, N-(4-methyl-3-[(4-pyridin-3-ylpyrimidin-2-yl)amino]phenyl)-1-piperazin-1-yl-2,3-dihydro-1H-indene-5-carboxamide] | –
18 | 23 | Cc1ccc(NC(=O)c2ccc3c(c2)CCC3N2CCN(C(C)C)CC2)cc1Nc1nccc(-c2cccnc2)n1 (stereo not shown) [EXAMPLE 5, 1-(4-isopropylpiperazin-1-yl)-N-(4-methyl-3-[(4-pyridin-3-ylpyrimidin-2-yl)amino]phenyl)-2,3-dihydro-1H-indene-5-carboxamide] | –
20 | 32 | Cc1ccc(NC(=O)c2ccc3c(c2)CCC3N2CCN(CCO)CC2)cc1Nc1nccc(-c2cccnc2)n1 (stereo not shown) [EXAMPLE 6] | –
41 | 529 | CC(=O)N1CCN(C2CCc3cc(C(=O)Nc4ccc(C)c(Nc5nccc(-c6cccnc6)n5)c4)ccc32)CC1 (stereo not shown) [EXAMPLE 7, 1-[4-acetylpiperazin-1-yl)-N-(4-methyl-3-[(4-pyridin-3-ylpyrimidin-2-yl)amino]phenyl)-2,3-dihydro-1H-indene-5-carboxamide] | –
22 | 32 | Cc1ccc(NC(=O)c2ccc3c(c2)CCC3N2CCN(C)CC2)cc1Nc1nccc(-c2cncnc2)n1 (stereo not shown) [EXAMPLE 8, N-[3-(4,5′-bipyrimidine-2-ylamino)-4-methylphenyl]-1-(4-methylpiperazin-1-yl)-2,3-dihydro-1H-indene-5-carboxamide] | –
15 | 51 | Cc1ccc(NC(=O)c2ccc3c(c2)CCC3N2CC[C@H](N(C)C)C2)cc1Nc1nccc(-c2cccnc2)n1 (stereo partly drawn) [EXAMPLE 9, 1-[(3S)-3-(dimethylamino)pyrrolidin-1-yl]-N-{4-methyl-3-[(4-pyridin-3-ylpyrimidin-2-yl)amino]phenyl}-2,3-dihydro-1H-indene-5-carboxamide] | –
65 | 2260 | Cc1ccc(NC(=O)c2ccc3c(c2)CC[C@H]3N2CCN(C)CC2)cc1Nc1nccc(-c2cncnc2)n1 [EXAMPLE 14, (1R)—N-[3-(4,5′-bipyrimidin-2-ylamino)-4-methylphenyl]-1-(4-methylpiperazin-1-yl)-2,3-dihydro-1H-indene-5-carboxamide] | –
– | – | Cc1ccc(NC(=O)c2ccc3c(c2)CC[C@@H]3N2CCN(C)CC2)cc1Nc1nccc(-c2cccnc2)n1 [EXAMPLE 16, (1S)-1-(4-methylpiperazin-1-yl)-N-(4-methyl-3-[(4-pyridin-3-ylpyrimidin-2-yl)amino]phenyl)-2,3-dihydro-1H-indene-5-carboxamide sulfate] | IC50 [10]: 0.25 nM; IC50 [11]: 11.2 nM; IC50 ([12]; Homo sapiens, MEG-01): 0.085 nM; IC50 ([13]; Homo sapiens, KU812): 0.024 nM; IC50 ([14]; Homo sapiens, SUP-B15): 39.6 nM
– | – | Cc1cn(-c2cc(NC(=O)c3ccc(C)c(Nc4nccc(-c5cccnc5)n4)c3)cc(C(F)(F)F)c2)cn1 [Nilotinib] | IC50 [10]: 6.26 nM; IC50 [11]: 22.3 nM; IC50 ([12]; Homo sapiens, MEG-01): 1.65 nM; IC50 ([13]; Homo sapiens, KU812): 2.1 nM; IC50 ([14]; Homo sapiens, SUP-B15): 135 nM
– | – | CN[C@@H]1C[C@H]2O[C@@](C)([C@@H]1OC)n1c3ccccc3c3c4c(c5c6ccccc6n2c5c31)C(=O)NC4 [Staurosporine] | IC50 [12]: 8.97 nM; IC50 [13]: 9.57 nM; IC50 [15]: 139 nM; IC50 [14]: 6.84 nM

SMILES | IC50 [1] [nM] | IC50 [2] [nM] | further results
Cc1ccc(NC(=O)c2ccc3c(c2)CC[C@@H]3N2CCN(C)CC2)cc1Nc1nccc(-c2cccnc2)n1 [EXAMPLE 11, (1S)-1-(4-methylpiperazin-1-yl)-N-(4-methyl-3-[(4-pyridin-3-ylpyrimidin-2-yl)amino]phenyl)-2,3-dihydro-1H-indene-5-carboxamide] | 9.6 | 8.5 | IC50 [3]: 3.2 nM; IC50 [4]: 83.6 nM; IC50 [5]: 1740 nM; IC50 [6]: 969 nM; IC50 [7]: 1.77 nM; IC50 [8]: 132 nM; IC50 [9]: 2060 nM
Cc1ccc(NC(=O)c2ccc3c(c2)CC[C@H]3N2CCN(C)CC2)cc1Nc1nccc(-c2cccnc2)n1 [EXAMPLE 12, (1R)-1-(4-methylpiperazin-1-yl)-N-(4-methyl-3-[(4-pyridin-3-ylpyrimidin-2-yl)amino]phenyl)-2,3-dihydro-1H-indene-5-carboxamide] | 53 | 2250 | IC50 [3]: 208 nM
Cc1ccc(NC(=O)c2ccc3c(c2)CC[C@@H]3N2CCN(C)CC2)cc1Nc1nccc(-c2cncnc2)n1 [EXAMPLE 13, (1S)—N-[3-(4,5′-bipyrimidin-2-ylamino)-4-methylphenyl]-1-(4-methylpiperazin-1-yl)-2,3-dihydro-1H-indene-5-carboxamide] | 13 | 15 | IC50 [3]: 2.2 nM
Cc1ccc(NC(=O)c2ccc3c(c2)CC[C@@H]3N2CCN(C)CC2)cc1Nc1nccc(-c2ccncc2)n1 [EXAMPLE 15, (1S)-1-(4-methylpiperazin-1-yl)-N-(4-methyl-3-[(4-pyridin-4-ylpyrimidin-2-yl)amino]phenyl)-2,3-dihydro-1H-indene-5-carboxamide] | 24 | 526 | IC50 [3]: 35 nM
